Measured values published in patent publication US20100041892A1, “Therapeutic agent for diabetes” (priority 2005, published 2010).
Where two headings read alike, the source gives them in different places.

Experiments:
KKAy mice = assay: Blood glucose and blood lipid (triglyceride) lowering action in mice; assay type: in vivo; details: Mus musculus, 4TO7, po, 4 to 7 days; for response vs control in vivo at 0.03 %: 0.03% in powder diet; for response vs control in vivo at 0.005 %: 0.005% in powder diet; for response vs control in vivo at 0.01 %: 0.01% in powder diet
Source text: The test compound was mixed with a powder diet (CE-2, CLEA JAPAN, INC.) at a proportion of 0.01% (0.03% for the compounds of Examples 1, 2, 12, 81, 94, 96, 129 and 143, and 0.005% for the compounds of Examples 28, 30 and 37) and freely given to KKAy mice (9 to 14-week-old, 5 mice per group) which are obesity non-insulin-dependent diabetes (type-2 diabetes) models, for 4 to 7 days. During this period, water was freely given. The blood was drawn from the orbital venous plexus. Glucose and triglyceride in the plasma separated from the blood were quantitated using L Type Wako Glu2 (Wako Pure Chemical Industries, Ltd.) and L Type Wako TG·H (Wako Pure Chemical Industries, Ltd.), respectively, according to an enzyme method.

PPARγ-RXRα heterodimer = biological target: T1, PPARγ-RXRα heterodimer (Homo sapiens, UniProt P37231); assay: PPARγ-RXRα heterodimer ligand activity (luciferase reporter, PPARγ:RXRα:4ERPP/CHO-K1 cells); assay type: cell-based; details: concentration showing 50% of the maximum luciferase induction rate; CHO-K1 reporter cells, one day incubation
T1 construct: expressed in transfected cells; host or cells: CHO-K1 (PPARγ:RXRα:4ERPP/CHO-K1)
T1 sequence (P37231 1-477 isoform P37231-2): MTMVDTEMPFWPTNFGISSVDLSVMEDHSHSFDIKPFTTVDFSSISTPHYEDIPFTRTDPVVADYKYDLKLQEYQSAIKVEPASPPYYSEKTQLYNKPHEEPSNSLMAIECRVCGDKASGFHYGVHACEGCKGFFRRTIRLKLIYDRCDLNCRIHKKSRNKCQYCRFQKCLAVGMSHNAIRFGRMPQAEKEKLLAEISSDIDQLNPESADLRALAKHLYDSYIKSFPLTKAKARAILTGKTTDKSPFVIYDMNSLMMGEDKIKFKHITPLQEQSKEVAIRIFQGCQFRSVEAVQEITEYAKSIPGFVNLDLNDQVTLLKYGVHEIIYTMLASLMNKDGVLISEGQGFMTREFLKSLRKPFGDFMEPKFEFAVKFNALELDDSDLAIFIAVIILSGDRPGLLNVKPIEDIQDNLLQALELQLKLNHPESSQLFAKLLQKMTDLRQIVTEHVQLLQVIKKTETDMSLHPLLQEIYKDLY
T1 sequence (P19793 1-462 partner): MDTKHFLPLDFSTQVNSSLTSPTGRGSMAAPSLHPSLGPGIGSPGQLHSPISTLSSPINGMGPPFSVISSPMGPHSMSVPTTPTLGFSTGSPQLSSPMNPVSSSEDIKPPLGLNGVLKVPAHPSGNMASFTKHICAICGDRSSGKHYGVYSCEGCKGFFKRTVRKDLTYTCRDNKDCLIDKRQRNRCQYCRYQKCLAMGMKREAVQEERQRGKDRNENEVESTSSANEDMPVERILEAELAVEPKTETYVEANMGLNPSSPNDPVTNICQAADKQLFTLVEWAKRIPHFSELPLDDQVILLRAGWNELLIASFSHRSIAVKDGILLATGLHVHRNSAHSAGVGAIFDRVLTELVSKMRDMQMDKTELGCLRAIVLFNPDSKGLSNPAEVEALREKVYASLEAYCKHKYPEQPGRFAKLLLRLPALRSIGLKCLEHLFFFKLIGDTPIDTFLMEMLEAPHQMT
Procedure: The PPARγ:RXRα:4ERPP/CHO-K1 cells described in WO03/099793 were cultured in a Ham F12 medium [manufactured by Life Technologies, Inc., US] containing 10% calf fetal serum [manufactured by Life Technologies, Inc., US], sown in a 96-well white plate (manufactured by Corning Coster Corporation, US] at 1×10^4 cells/well, and incubated overnight in a carbon dioxide gas incubator at 37° C.
Then, the medium was removed from the 96 well white plate, 45 μl of Ham F12-medium containing 0.1% fatty acid-free bovine serum albumin (BSA) and a test compound (5 μl) were added, and the cells were incubated for one day in a carbon dioxide gas incubator at 37° C. The medium was removed, 20 μl of PicaGene 7.5 (manufactured by Wako Pure Chemical Industries, Ltd.) 2-fold diluted with HBSS (HANKS' BALANCED SALT SOLUTION) [manufactured by BIO WHITTAKER, US] was added. After stirring, the luciferase activity was determined using the 1420 ARVO Multilabel Counter [manufactured by PerkinElmer, US].
The induction rate was calculated from the luciferase activity of each test compound based on the luciferase activity of the test compound non-administration group as 1. The test compound concentration and the induction rate were analyzed by PRISM [manufactured by GraphPad Software, Inc., US] to calculate EC50 value (compound concentration showing 50% of the maximum value of induction rate) of the test compound.

[1] = plasma glucose relative to non-administration group = 100%, read-out: hypoglycemic action (%)
[2] = plasma triglyceride relative to non-administration group = 100%, read-out: hypolipidemic action (%)

| EC50 (PPARγ-RXRα heterodimer) | melting point | SMILES | response vs control in vivo at 0.03 % (KKAy mice; [1]) | response vs control in vivo at 0.03 % (KKAy mice; [2]) | response vs control in vivo at 0.005 % (KKAy mice; [1]) | response vs control in vivo at 0.005 % (KKAy mice; [2]) | response vs control in vivo at 0.01 % (KKAy mice; [1]) | response vs control in vivo at 0.01 % (KKAy mice; [2]) |
| --- | --- | --- | --- | --- | --- | --- | --- | --- |
| 1.5 nM | – | CCCCCS(=O)(=O)NC(=O)CCc1ccc(OCCOC)cc1Oc1ncc(C(F)(F)F)cc1Cl [Example 1, 3-[2-{[3-chloro-5-(trifluoromethyl)pyridin-2-yl]oxy}-4-(2-methoxyethoxy)phenyl]-N-(pentylsulfonyl)propanamide] | 47% | 53% | – | – | – | – |
| 2.6 nM | – | CCCCCS(=O)(=O)NC(=O)CCc1ccc(OC(C)C)cc1Oc1ncc(C(F)(F)F)cc1Cl [Example 2, 3-(2-{[3-chloro-5-(trifluoromethyl)pyridin-2-yl]oxy}-4-isopropoxyphenyl)-N-(pentylsulfonyl)propanamide] | 50% | 41% | – | – | – | – |
| 15 nM | – | CCCCCS(=O)(=O)NC(=O)/C=C/c1ccc(OCCOC)cc1Oc1ncc(C(F)(F)F)cc1Cl [Example 12, (2E)-3-[2-{[3-chloro-5-(trifluoromethyl)pyridin-2-yl]oxy}-4-(2-methoxyethoxy)phenyl]-N-(pentylsulfonyl)acrylamide] | 46% | 43% | – | – | – | – |
| 4.5 nM | – | CCCCCS(=O)(=O)NC(=O)OCCCc1ccc(OCCOC)cc1Oc1ncc(C(F)(F)F)cc1Cl [Example 28, 3-[2-{[3-chloro-5-(trifluoromethyl)pyridin-2-yl]oxy}-4-(2-methoxyethoxy)phenyl]propyl (pentylsulfonyl)carbamate] | – | – | 52% | 32% | – | – |
| 10 nM | – | CCCCCS(=O)(=O)NC(=O)OCc1ccc(OCCOC)cc1Oc1ncc(C(F)(F)F)cc1Cl [Example 58, 2-{[3-chloro-5-(trifluoromethyl)pyridin-2-yl]oxy}-4-(2-methoxyethoxy)benzyl (pentylsulfonyl)carbamate] | – | – | – | – | 64% | 73% |
| 16 nM | – | CCCCCS(=O)(=O)NC(=O)CCc1cc(OC(C)C)nn1Cc1ccc(Cl)cc1Cl [Example 81, 3-[1-(2,4-dichlorobenzyl)-3-isopropoxy-1H-pyrazol-5-yl]-N-(pentylsulfonyl)propanamide] | 44% | 60% | – | – | – | – |
| 20 nM | – | CCCCCS(=O)(=O)NC(=O)/C=C/c1cc(OC(C)C)nn1Cc1ccc(Cl)cc1Cl [Example 94, (2E)-3-[1-(2,4-dichlorobenzyl)-3-isopropoxy-1H-pyrazol-5-yl]-N-(pentylsulfonyl)acrylamide] | 48% | 79% | – | – | – | – |
| 8.4 nM | – | CCCCCS(=O)(=O)NC(=O)CCc1cc(C(C)C)nn1Cc1ccc(C(F)(F)F)cc1Cl [Example 96, 3-(1-[2-chloro-4-(trifluoromethyl)benzyl]-3-isopropyl-1H-pyrazol-5-yl)-N-(pentylsulfonyl)propanamide] | 53% | 57% | – | – | – | – |
| 8.3 nM | – | CC(C)CCS(=O)(=O)NC(=O)/C=C/c1cc(OC(C)C)nn1Cc1ccc(C(F)(F)F)cc1Cl [Example 112, (2E)-3-{1-[2-chloro-4-(trifluoromethyl)benzyl]-3-isopropoxy-1H-pyrazol-5-yl}-N-[(3-methylbutyl)sulfonyl]acrylamide] | – | – | – | – | 53% | 70% |
| 12 nM | – | CCCCCS(=O)(=O)NC(=O)/C=C/c1cc(C2CC2)nn1Cc1ccc(C(F)(F)F)cc1Cl [Example 155, (2E)-3-{1-[2-chloro-4-(trifluoromethyl)benzyl]-3-cyclopropyl-1H-pyrazol-5-yl}-N-(pentylsulfonyl)acrylamide] | – | – | – | – | 70% | 70% |
| 0.92 nM | – | COCCOc1ccc(CCCOC(=O)NS(=O)(=O)NCCOC(C)C)c(Oc2ncc(C(F)(F)F)cc2Cl)c1 [Example 204, 3-[2-{[3-chloro-5-(trifluoromethyl)pyridin-2-yl]oxy}-4-(2-methoxyethoxy)phenyl]propyl {[(2-isopropoxyethyl)amino]sulfonyl}carbamate] | – | – | – | – | 52% | 36% |
| 2.1 nM | 76 to 77.5 °C | CCCCCS(=O)(=O)NC(=O)CCc1ccc(OCCOCCOC)cc1Oc1ncc(C(F)(F)F)cc1Cl [Example 257, 3-{2-{[3-chloro-5-(trifluoromethyl)pyridin-2-yl]oxy}-4-[2-(2-methoxyethoxy)ethoxy]phenyl}-N-(pentylsulfonyl)propanamide] | – | – | – | – | – | – |
| 1.1 nM | 115 to 115.2 °C | CCCCCS(=O)(=O)NC(=O)CCc1ccc(OCCCOC)cc1Oc1ncc(C(F)(F)F)cc1Cl [Example 258, 3-[2-{[3-chloro-5-(trifluoromethyl)pyridin-2-yl]oxy}-4-(3-methoxypropoxy)phenyl]-N-(pentylsulfonyl)propanamide] | – | – | – | – | – | – |
| 7.3 nM | 90 to 92 °C | CCCCCS(=O)(=O)NC(=O)/C=C/c1ccc(OCCC2(C)OCCO2)cc1Oc1ncc(C(F)(F)F)cc1Cl [Example 453, (2E)-3-{2-{[3-chloro-5-(trifluoromethyl)pyridin-2-yl]oxy}-4-[2-(2-methyl-1,3-dioxolan-2-yl)ethoxy]phenyl}-N-(pentylsulfonyl)acrylamide] | – | – | – | – | – | – |

| SMILES | EC50 (PPARγ-RXRα heterodimer) | melting point | response vs control in vivo at 0.03 % (KKAy mice; [1]) | response vs control in vivo at 0.03 % (KKAy mice; [2]) | response vs control in vivo at 0.005 % (KKAy mice; [1]) | response vs control in vivo at 0.005 % (KKAy mice; [2]) | response vs control in vivo at 0.01 % (KKAy mice; [1]) | response vs control in vivo at 0.01 % (KKAy mice; [2]) |
| --- | --- | --- | --- | --- | --- | --- | --- | --- |
| COCCOc1ccc(CCCOC(=O)NS(=O)(=O)c2ccc(C)cc2)c(Oc2ncc(C(F)(F)F)cc2Cl)c1 [Example 30, 3-[2-{[3-chloro-5-(trifluoromethyl)pyridin-2-yl]oxy}-4-(2-methoxyethoxy)phenyl]propyl [(4-methylphenyl)sulfonyl]carbamate monohydrate] | 3.8 nM | – | – | – | 47% | 57% | – | – |
| COCCOc1ccc(/C=C/COC(=O)NS(=O)(=O)c2ccc(Cl)cc2)c(Oc2ncc(C(F)(F)F)cc2Cl)c1 [Example 37, (2E)-3-[2-{[3-chloro-5-(trifluoromethyl)pyridin-2-yl]oxy}-4-(2-methoxyethoxy)phenyl]-2-propen-1-yl [(4-chlorophenyl)sulfonyl]carbamate dihydrate] | 21 nM | – | – | – | 68% | 70% | – | – |
